In PMC6747525, “Chk1 Inhibitor MK-8776 Restores the Sensitivity of Chemotherapeutics in P-glycoprotein Overexpressing Cancer Cells” (International Journal of Molecular Sciences, 2019):
pEC50: −log10 of the molar value.

Assays:
P-glycoprotein (P-gp) [1] = target: T1, P-glycoprotein (P-gp) (Homo sapiens, UniProt P08183); test: biochemical
T1 construct: gene ABCB1

P-glycoprotein (P-gp) [2] = target: T1, P-glycoprotein (P-gp)

T1 sequence (P08183 whole entry): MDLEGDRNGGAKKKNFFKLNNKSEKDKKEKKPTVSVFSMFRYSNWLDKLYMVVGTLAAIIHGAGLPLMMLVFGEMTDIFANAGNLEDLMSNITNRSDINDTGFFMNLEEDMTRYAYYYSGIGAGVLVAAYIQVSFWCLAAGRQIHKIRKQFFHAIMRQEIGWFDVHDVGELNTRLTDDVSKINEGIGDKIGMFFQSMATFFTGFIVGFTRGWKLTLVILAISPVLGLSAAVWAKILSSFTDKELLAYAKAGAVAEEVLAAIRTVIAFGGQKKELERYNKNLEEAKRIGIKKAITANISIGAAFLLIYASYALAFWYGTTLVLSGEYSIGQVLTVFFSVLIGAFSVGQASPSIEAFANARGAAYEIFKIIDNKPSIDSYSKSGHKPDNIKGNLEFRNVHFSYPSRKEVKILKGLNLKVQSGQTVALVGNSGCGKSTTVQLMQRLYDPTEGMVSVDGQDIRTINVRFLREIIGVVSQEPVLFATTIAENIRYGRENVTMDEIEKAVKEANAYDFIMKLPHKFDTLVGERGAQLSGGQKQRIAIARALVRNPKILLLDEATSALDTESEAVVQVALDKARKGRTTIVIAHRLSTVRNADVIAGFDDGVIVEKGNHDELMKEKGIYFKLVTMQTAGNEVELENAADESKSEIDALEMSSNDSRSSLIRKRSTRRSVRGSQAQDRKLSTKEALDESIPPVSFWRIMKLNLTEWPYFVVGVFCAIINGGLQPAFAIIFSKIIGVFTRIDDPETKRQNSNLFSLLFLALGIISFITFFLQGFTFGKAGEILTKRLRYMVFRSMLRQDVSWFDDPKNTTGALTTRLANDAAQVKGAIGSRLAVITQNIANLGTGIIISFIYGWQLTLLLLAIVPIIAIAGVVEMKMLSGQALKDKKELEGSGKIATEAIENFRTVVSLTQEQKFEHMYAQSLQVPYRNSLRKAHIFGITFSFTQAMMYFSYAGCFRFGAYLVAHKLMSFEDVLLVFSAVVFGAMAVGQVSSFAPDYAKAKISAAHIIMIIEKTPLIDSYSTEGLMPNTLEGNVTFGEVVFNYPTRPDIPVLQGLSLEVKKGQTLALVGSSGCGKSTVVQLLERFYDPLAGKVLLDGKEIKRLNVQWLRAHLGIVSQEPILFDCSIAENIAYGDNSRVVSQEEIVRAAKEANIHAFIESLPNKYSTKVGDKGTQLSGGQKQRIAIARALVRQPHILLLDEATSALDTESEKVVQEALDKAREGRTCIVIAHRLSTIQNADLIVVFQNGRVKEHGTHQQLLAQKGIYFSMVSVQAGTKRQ

Structure (SMILES)	pEC50 (P-glycoprotein (P-gp) [1])	[3H]-paclitaxel accumulation and efflux in P-gp-overexpressing KB-C2 versus pare (P-glycoprotein (P-gp) [2])
Cn1cc(-c2cnn3c(N)c(Br)c([C@@H]4CCCNC4)nc23)cn1 [MK-8776]	5.42	
CC(=O)O[C@H]1C(=O)[C@@]2(C)[C@H]([C@H](OC(=O)c3ccccc3)[C@]3(O)C[C@H](OC(=O)[C@H](O)[C@@H](NC(=O)c4ccccc4)c4ccccc4)C(C)=C1C3(C)C)[C@]1(OC(C)=O)CO[C@@H]1C[C@@H]2O [paclitaxel]		[^3H]-paclitaxel efflux increased significantly compared with that in their parental KB-3-1 cells
